The values that follow come from patent US9113629B2, “4-amino-6-(4-substituted-phenyl)-picolinates and 6-amino-2-(4-substituted-phenyl)-pyrimidine-4-carboxylates and their use as herbicides” (DOW AGROSCIENCES LLC, priority 2013, dated 2015).

Type in all cases: in vivo
The subject of assay [1] is AMARE: redroot pigwseed (Amaranthus retroflexus). Briefly: Pre-emergent Test I herbicidal activity. The settings on record: pre-emergence, 336 h, 4 kg ai/ha, read-out: Visual Growth Reduction (%) 14 Days After Application, AMARE. In a few lines:
(§1)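 Pre-emergence soil application: formulated compound was pipetted over the surface of sandy loam pots planted with seed, then watered in. Plants grew in a greenhouse at about 23-29° C (day) and 22-28° C (night). Injury was scored 14 days later from 0 (no effect) to 100 (death or no emergence).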

For assay [2], the system named is AVEFA: wild oats (Avena fatua). In words: Pre-emergent Test I herbicidal activity. The settings on record: pre-emergence, 336 h, 4 kg ai/ha, read-out: Visual Growth Reduction (%) 14 Days After Application, AVEFA. In a few lines:
as §1

Assay [3] relates to ECHCG: barnyardgrass (Echinochloa crus-galli). In words: Pre-emergent Test I herbicidal activity. The settings on record: pre-emergence, 336 h, 4 kg ai/ha, read-out: Visual Growth Reduction (%) 14 Days After Application, ECHCG. A digest of the protocol: as §1
The test system of assay [4] is HELAN: sunflower (Helianthus annuus). In words: Pre-emergent Test I herbicidal activity. The settings on record: pre-emergence, 336 h, 4 kg ai/ha, read-out: Visual Growth Reduction (%) 14 Days After Application, HELAN. A digest of the protocol:
as §1

Assay [5] relates to IPOHE: ivyleaf morningglory (Ipomoea hederecea). In words: Pre-emergent Test I herbicidal activity. The settings on record: pre-emergence, 336 h, 4 kg ai/ha, read-out: Visual Growth Reduction (%) 14 Days After Application, IPOHE. In a few lines: as §1
Assay [6] relates to SETFA: giant foxtail (Setaria faberi). In words: Pre-emergent Test I herbicidal activity. The settings on record: pre-emergence, 336 h, 4 kg ai/ha, read-out: Visual Growth Reduction (%) 14 Days After Application, SETFA. In a few lines:
as §1

The test system of assay [7] is BROTE: downy brome (Bromus tectorum). Briefly: Post-emergent Test III, herbicidal activity in wheat and barley. In a few lines:
(§2)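 GR20, GR50, GR80 and GR90 come from probit analysis of visual injury scores (0 = none, 100 = complete kill) taken 21 d after treatment. Foliar application was by track sprayer delivering 187 L/ha at five rates, from high down to 1/16×, onto greenhouse plants at the 2–3 leaf stage, with solvent-blank controls.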

Assay [8] deals with PAPRH: common poppy (Papaver rhoeas). The description is as above. A digest of the protocol: as §2
Assay [9] concerns VERPE: bird's-eye speedwell (veronica persica). The description is as above. A digest of the protocol:
as §2

The mark [10] stands for this setting: probit analysis, dose for growth reduction of 50 percent, 21 days after application.
The mark [11] stands for this setting: probit analysis, dose for growth reduction of 80 percent, 21 days after application.

With `Nc1c(F)c(-c2ccc(OC(F)F)cc2)nc(C(=O)O)c1Cl` [Compound 143], the pest or weed control at 4000 g/ha was in the range of 85 to 94% in [1]; 60 to 74% in [2]; 85 to 94% in assay [3]; 95 to 100% in assay [4]; 85 to 94% in assay [5]; 95 to 100% in [6]. The pest or weed control at 35 g/ha in assay [7] (Bromus tectorum, post-emergence, 504 h, 35 g ai/ha, read-out: Visual Growth Reduction (%) 21 Days After Application BROTE) was 0 to 29%; in [8] (Papaver rhoeas, post-emergence, 504 h, 35 g ai/ha, read-out: Visual Growth Reduction (%) 21 Days After Application PAPRH) it was 85 to 94%; in assay [9] (Veronica persica, post-emergence, 504 h, 35 g ai/ha, read-out: Visual Growth Reduction (%) 21 Days After Application VERPE), 30 to 44%. The pest or weed control at 70 g/ha in assay [7] (Bromus tectorum, post-emergence, 504 h, 70 g ai/ha, read-out: Visual Growth Reduction (%) 21 Days After Application BROTE) lay within 45 to 59%; in assay [8] (Papaver rhoeas, post-emergence, 504 h, 70 g ai/ha, read-out: Visual Growth Reduction (%) 21 Days After Application PAPRH) it was 85 to 94%; in assay [9] (Veronica persica, post-emergence, 504 h, 70 g ai/ha, read-out: Visual Growth Reduction (%) 21 Days After Application VERPE), 45 to 59%. The pest or weed control at 140 g/ha was in the range of 45 to 59% in assay [7] (Bromus tectorum, post-emergence, 504 h, 140 g ai/ha, read-out: Visual Growth Reduction (%) 21 Days After Application BROTE); 85 to 94% in assay [8] (Papaver rhoeas, post-emergence, 504 h, 140 g ai/ha, read-out: Visual Growth Reduction (%) 21 Days After Application PAPRH); 45 to 59% in assay [9] (Veronica persica, post-emergence, 504 h, 140 g ai/ha, read-out: Visual Growth Reduction (%) 21 Days After Application VERPE). Besides, the “GR50 BROTE” value in [7] (setting [10]) is on record as 95 g ai/ha. In addition, in assay [7] (setting [11]), the “GR80 BROTE” value is above 140 g ai/ha. Besides, in assay [8] (setting [10]), the “GR50 PAPRH” value was 1 g ai/ha. Also, the “GR80 PAPRH” value in assay [8] (setting [11]) came to 8 g ai/ha. The “GR50 VERPE” value in [9] (setting [10]) worked out at 97 g ai/ha. Further, the “GR80 VERPE” value in assay [9] (setting [11]) is recorded as above 140 g ai/ha.
